Reference: US8288352B2, “Auristatins having an aminobenzoic acid unit at the N terminus” (priority 2004, dated 2012)
Where two headings read alike, the source gives them in different places. Non-standard residues stand in square brackets, D forms with d. Residues, ends and D or L forms follow the SMILES beside them. *: point of attachment. Dolaproine = CO[C@@H]([C@@H]1CCCN1)[C@@H](C)C(=O)O; Dil = CC[C@H](C)[C@H](NC)[C@@H](CC(=O)O)OC; X1 = C[C@@H](N*)[C@@H](O)c1ccccc1; NMeV = CN[C@H](C(=O)O)C(C)C

Legend:
[1] = test system: Karpas-299 anaplastic large cell lymphoma cell line (CD30+); test: In vitro cytotoxicity (alamarBlue) on Karpas 299; format: cell-based, human
Protocol: (§1) Table 6 summarizes cytotoxic activity of MMAF, 100, 103, 107 on H3396 human breast carcinoma and Karpas-299 anaplastic large cell lymphoma cell lines assayed. To evaluate the cytotoxicity of Compounds 100, 103, and 107, cells were seeded at approximately 10,000 per well in 150 μl of culture medium containing graded doses of Compounds 100, 103, and 107 in quadruplicates at the initiation of assay. Cytotoxicity assays were usually carried out for 96 hours. Fifty μl of the alamarBlue™ dye was added to each well during the last 4 to 6 hours of the incubation to assess viable cells at the end of culture. Dye reduction was determined by fluorescence spectrometry using the excitation and emission wavelengths of 535 nm and 590 nm, respectively. For analysis, the extent of alamarBlue™ reduction by the treated cells was compared to that of the untreated control cells.

[2] = test system: H3396 human breast carcinoma; test: In vitro cytotoxicity (alamarBlue) on H3396; format: cell-based; conditions: read-out: IC50 values
Protocol: as §1

[3] = karpas 299, 96 hours, alamarBlue, read-out: IC50 values
[4] = Homo sapiens, KARPAS-299, 96 h, read-out: IC50 values

Compound | IC50 [1, 3] [nM] | IC50 ([2]; H3396, 96 hours, alamarBlue) [nM] | IC50 [1, 4] [nM] | IC50 ([2]; Homo sapiens, H3396, 96 h) [nM] | IC50 ([1]; cAC10 conjugates, all 4 drugs/Ab, CD30+ cell line Karpas 299) [ng/mL]
CC[C@H](C)[C@@H]([C@@H](CC(=O)N1CCC[C@H]1[C@H](OC)[C@@H](C)C(=O)N[C@H](C)[C@@H](O)c1ccccc1)OC)N(C)C(=O)[C@@H](NC(=O)[C@@H](NC)C(C)C)C(C)C [MMAE, mono-methyl auristatin E, reference compound] (H-[NMeV]V[Dil][Dolaproine]-X1) | 0.13 | 0.8 | – | – | –
CC[C@H](C)[C@@H]([C@@H](CC(=O)N1CCC[C@H]1[C@H](OC)[C@@H](C)C(=O)N[C@@H](Cc1ccccc1)C(=O)O)OC)N(C)C(=O)[C@@H](NC(=O)[C@@H](NC)C(C)C)C(C)C [MMAF, N-methylvaline-valine-dolaisoleuine-dolaproine-phenylalanine, reference compound] (H-[NMeV]V[Dil][Dolaproine]F-OH) | 130 | 104 | – | – | –
CC[C@H](C)[C@@H]([C@@H](CC(=O)N1CCC[C@H]1[C@H](OC)[C@@H](C)C(=O)N[C@@H](Cc1ccccc1)C(=O)O)OC)N(C)C(=O)[C@@H](NC(=O)c1ccc(N)cc1)C(C)C [Compound 103, 4-Abz-Val-Dil-Dap-Phe] | – | – | 43 | > 100 | –
cAC10-vc-MMAF: cAC10 Conjugate with Val-Cit linker and MMAF, average 4 drugs per antibody [reference compound] | – | – | – | – | 0.75
CC[C@H](C)[C@@H]([C@@H](CC(=O)N1CCC[C@H]1[C@H](OC)[C@@H](C)C(=O)N[C@@H](Cc1ccccc1)C(=O)OC(C)(C)C)OC)N(C)C(=O)[C@@H](NC(=O)c1ccc(N)cc1)C(C)C [Compound 100, 4-Abz-Val-Dil-Dap-Phe-OtBu] | – | – | 1.8 | 17.8 | –
CC[C@H](C)[C@@H]([C@@H](CC(=O)N1CCC[C@H]1[C@H](OC)[C@@H](C)C(=O)N[C@@H](Cc1ccccc1)C(=O)OC)OC)N(C)C(=O)[C@@H](NC(=O)c1ccc(N)cc1)C(C)C [Compound 107, 4-Abz-Val-Dil-Dap-Phe-OMe] | – | – | 0.12 | 0.003 | –
